Results from patent US20240409556A1, “BENZOPIPERAZINE AND RELATED ANALOGS FOR INHIBITING YAP/TAZ-TEAD” (Springworks Therapeutics, Inc., priority 2023, published 2024).

System: YAP/TAZ-TEAD transcription
Experiment: Reporter gene assay for measuring the inhibition of YAP/TAZ-TEAD transcription (TEAD-responsive element luciferase reporter in Hek293T cells)
Assay type: cell-based
Conditions: 24 hours incubation
Protocol: Example 56: Activity of Compounds of the Disclosure in a Reporter Gene Assay for Measuring the Inhibition of YAP/TAZ-TEAD Transcription
Hek293T cells were cultured in DMEM supplemented with 10% fetal bovine serum, Sodium pyruvate, Sodium bicarbonate, L-glutamine. The cells were harvested and transiently transfected with TEAD-responsive element luciferase reporter. Transfected cells were plated in 384-well plate containing pre-diluted compounds. After 24 hours incubation at 37° C./5% CO2, assay plates were cooled to room temperature and levelled to an equal volume per well, prior to the addition of 25 uL luciferase substrate SteadyLite (Perkin Elmer)/well. The plate was shaken for 10 min at 600 rpm, centrifuged for 1 min at 500 rpm and measured with an Envision reader (PerkinElmer). The amount of relative light units produced by the TEAD reporter was used to calculate the percentage of inhibition.
The percent of reporter inhibition was calculated in the presence of a positive control inhibitor (100% inhibition) versus a condition with the presence of the vehicle basal activity of the reporter (0% inhibition). The ability of a test compound to inhibit this activity was determined as: Percentage inhibition=[[…]((RLU determined in the presence of vehicle−RLU determined for sample with test compound present) divided by (RLU determined in the presence of vehicle−RLU determined for sample with positive control inhibitor))]*100.
The activities of example compounds tested are depicted in Table 3. The activity ranges A, B and C refer to IC50 values in the reporter gene assay as follows: “A”: IC50<1 μM; “B”: 1 μM≤IC50≤10 μM and “C”: IC50>10 μM; NT=not tested.

| SMILES | IC50 (Homo sapiens, HEK-293T, 24 h) [nM] | IC50 [nM] |
| --- | --- | --- |
| O=C1CN2c3ccccc3N(c3ccc(C(F)(F)F)cc3)CC2CN1 (stereo not drawn) [compound 10, 6-(4-(trifluoromethyl)phenyl)-4,4a,5,6-tetrahydro-1H-pyrazino[1,2-a]quinoxalin-2(3H)-one] | 1000 to 10000 |  |
| C=CC(=O)NCC1CN(c2ccc(C(F)(F)F)cc2)c2ccccc2N1CC(N)=O (stereo not drawn) [compound 11, N-((1-(2-amino-2-oxoethyl)-4-(4-(trifluoromethyl)phenyl)-1,2,3,4-tetrahydroquinoxalin-2-yl)methyl)acrylamide] | < 1000 |  |
| C=CC(=O)NCC1CN(c2ccc(C(F)(F)F)cc2)c2ccccc2N1CC(=O)NC (stereo not drawn) [compound 12, N-((1-(2-(methylamino)-2-oxoethyl)-4-(4-(trifluoromethyl)phenyl)-1,2,3,4-tetrahydroquinoxalin-2-yl)methyl)acrylamide] | < 1000 |  |
| CS(=O)(=O)N1CCN2c3ccccc3N(c3ccc(C(F)(F)F)cc3)CC2C1 (stereo not drawn) [compound 16, 3-(methylsulfonyl)-6-(4-(trifluoromethyl)phenyl)-2,3,4,4a,5,6-hexahydro-1H-pyrazino[1,2-a]quinoxaline] | < 1000 |  |
| C=CC(=O)NCC1CN(c2ccc(C(F)(F)F)cc2)c2ccccc2N1C(C)=O (stereo not drawn) [compound 18, N-((1-acetyl-4-(4-(trifluoromethyl)phenyl)-1,2,3,4-tetrahydroquinoxalin-2-yl)methyl)acrylamide] | 1000 to 10000 |  |
| CC(=O)NCC1CN(c2ccc(C(F)(F)F)cc2)c2ccccc2N1C (stereo not drawn) [compound 19, N-((1-methyl-4-(4-(trifluoromethyl)phenyl)-1,2,3,4-tetrahydroquinoxalin-2-yl)methyl)acetamide] | 1000 to 10000 |  |
| COC(=O)N1CCN2c3ccccc3N(c3ccc(C(F)(F)F)cc3)CC2C1 (stereo not drawn) [compound 20, methyl 6-(4-(trifluoromethyl)phenyl)-1,2,4,4a,5,6-hexahydro-3H-pyrazino[1,2-a]quinoxaline-3-carboxylate] | < 1000 |  |
| C=CC(=O)N1CCN2CCN(c3ccc(C(F)(F)F)cc3)CC2C1 (stereo not drawn) [compound 21, 1-(8-(4-(trifluoromethyl)phenyl)octahydro-2H-pyrazino[1,2-a]pyrazin-2-yl)prop-2-en-1-one] | < 1000 |  |
| C=CC(=O)NCC1CN(c2ccc(C(F)(F)F)cc2)c2ccccc2N1S(C)(=O)=O (stereo not drawn) [compound 23, N-((1-(methylsulfonyl)-4-(4-(trifluoromethyl)phenyl)-1,2,3,4-tetrahydroquinoxalin-2-yl)methyl)acrylamide] | < 1000 |  |
| Cc1nnc(N2CCN3c4ccccc4N(c4ccc(C(F)(F)F)cc4)CC3C2)o1 (stereo not drawn) [compound 24, 2-methyl-5-(6-(4-(trifluoromethyl)phenyl)-1,2,4,4a,5,6-hexahydro-3H-pyrazino[1,2-a]quinoxalin-3-yl)-1,3,4-oxadiazole] | > 10000 |  |
| FC(F)(F)c1ccc(N2CC3CN(c4ncco4)CCN3c3ccccc32)cc1 (stereo not drawn) [compound 25, 2-(6-(4-(trifluoromethyl)phenyl)-1,2,4,4a,5,6-hexahydro-3H-pyrazino[1,2-a]quinoxalin-3-yl)oxazole] | > 10000 |  |
| CN1CCN2c3ccccc3N(c3ccc(C(F)(F)F)cc3)CC2C1 (stereo not drawn) [compound 26, 3-methyl-6-(4-(trifluoromethyl)phenyl)-2,3,4,4a,5,6-hexahydro-1H-pyrazino[1,2-a]quinoxaline] | 1000 to 10000 |  |
| C=CC(=O)NCC1CN(c2ccc(C(F)(F)F)cc2)c2cccnc2N1C (stereo not drawn) [compound 27, N-((4-methyl-1-(4-(trifluoromethyl)phenyl)-1,2,3,4-tetrahydropyrido[2,3-b]pyrazin-3-yl)methyl)acrylamide] | < 1000 |  |
| O=Cc1ccc(CN2CCN3c4ccccc4N(c4ccc(C(F)(F)F)cc4)CC3C2)cc1O (stereo not drawn) [compound 30, 2-hydroxy-4-((6-(4-(trifluoromethyl)phenyl)-1,2,4,4a,5,6-hexahydro-3H-pyrazino[1,2-a]quinoxalin-3-yl)methyl)benzaldehyde] | 1000 to 10000 |  |
| O=C(O)CN1CCN2c3ccccc3N(c3ccc(C(F)(F)F)cc3)CC2C1 (stereo not drawn) [compound 31, 2-(6-(4-(trifluoromethyl)phenyl)-1,2,4,4a,5,6-hexahydro-3H-pyrazino[1,2-a]quinoxalin-3-yl)acetic acid] | 1000 to 10000 |  |
| C=CC(=O)N1CCN2C(C1)CN(c1ccc(C(F)(F)F)cc1)C1C2C1(Cl)Cl (stereo not drawn) [compound 43, 1-(1,1-dichloro-2-(4-(trifluoromethyl)phenyl)octahydrocyclopropa[e]pyrazino[1,2-a]pyrazin-5(1H)-yl)prop-2-en-1-one] | < 1000 |  |

Now from value to molecule:

| IC50 (Homo sapiens, HEK-293T, 24 h) [nM] | IC50 [nM] | SMILES |
| --- | --- | --- |
| < 1000 |  | C=CC(=O)N1CCN2CC(=O)N(c3ccc(C(F)(F)F)cc3)CC2C1 (stereo not drawn) [compound 33, 8-acryloyl-2-(4-(trifluoromethyl)phenyl)-hexahydro-2H-pyrazino[1,2-a]pyrazin-3(4H)-one] |
| < 1000 |  | CC(=O)N1CCN2c3nccnc3N(c3ccc(C(F)(F)F)cc3)CC2C1 (stereo not drawn) [compound 40, 1-(5-(4-(trifluoromethyl)phenyl)-5,6,6a,7,9,10-hexahydro-8H-dipyrazino[1,2-a:2′,3′-e]pyrazin-8-yl)ethan-1-one] |
| < 1000 |  | C=CC(=O)N1CCN2c3nccnc3N(c3ccc(C(F)(F)F)cc3)CC2C1 (stereo not drawn) [compound 41, 1-(5-(4-(trifluoromethyl)phenyl)-5,6,6a,7,9,10-hexahydro-8H-dipyrazino[1,2-a:2′,3′-e]pyrazin-8-yl)prop-2-en-1-one] |
| > 10000 |  | CC(=O)N1CCN2C(=O)CN(c3ccc(C(F)(F)F)cc3)CC2C1 (stereo not drawn) [compound 44, 8-acetyl-2-(4-(trifluoromethyl)phenyl)octahydro-4H-pyrazino[1,2-a]pyrazin-4-one] |
| < 1000 |  | CNS(=O)(=O)N1CCN2c3ncccc3N(c3ccc(C(F)(F)F)cc3)CC2C1 (stereo not drawn) [compound 45, N-methyl-5-(4-(trifluoromethyl)phenyl)-5,6,6a,7,9,10-hexahydro-8H-pyrazino[1,2-a]pyrido[3,2-e]pyrazine-8-sulfonamide] |
| < 1000 |  | O=C(C1CC1)N1CCN2c3ncccc3N(c3ccc(C(F)(F)F)cc3)CC2C1 (stereo not drawn) [compound 46, Cyclopropyl(5-(4-(trifluoromethyl)phenyl)-5,6,6a,7,9,10-hexahydro-8H-pyrazino[1,2-a]pyrido[3,2-e]pyrazin-8-yl)methanone] |
| < 1000 |  | CC(C)C(=O)N1CCN2c3ncccc3N(c3ccc(C(F)(F)F)cc3)CC2C1 (stereo not drawn) [compound 47, 2-methyl-1-(5-(4-(trifluoromethyl)phenyl)-5,6,6a,7,9,10-hexahydro-8H-pyrazino[1,2-a]pyrido[3,2-e]pyrazin-8-yl)propan-1-one] |
| < 1000 |  | C=CC(=O)NCC1CN(c2ccc(C(F)(F)F)cc2)c2cccnc2O1 (stereo not drawn) [compound 48, N-((1-(4-(trifluoromethyl)phenyl)-2,3-dihydro-1H-pyrido[2,3-b][1,4]oxazin-3-yl)methyl)acrylamide] |
| < 1000 |  | CC(=O)NCC1CN(c2ccc(C(F)(F)F)cc2)c2cccnc2O1 (stereo not drawn) [compound 49, N-((1-(4-(trifluoromethyl)phenyl)-2,3-dihydro-1H-pyrido[2,3-b][1,4]oxazin-3-yl)methyl)acetamide] |
| < 1000 |  | FC(F)(F)c1ccc(N2CCN(Cc3nnc[nH]3)c3ccccc32)cc1 [compound 50, 1-((4H-1,2,4-triazol-3-yl)methyl)-4-(4-(trifluoromethyl)phenyl)-1,2,3,4-tetrahydroquinoxaline] |
| < 1000 |  | CNC(=O)N1CCN2c3ncccc3N(c3ccc(C(F)(F)F)cc3)CC2C1 (stereo not drawn) [compound 52, N-methyl-5-(4-(trifluoromethyl)phenyl)-5,6,6a,7,9,10-hexahydro-8H-pyrazino[1,2-a]pyrido[3,2-e]pyrazine-8-carboxamide] |
|  | < 1000 | CC(=O)N1CCN2c3ncccc3N(c3ccc(C(F)(F)F)cn3)CC2C1 (stereo not drawn) [compound 53, 1-(5-(5-(trifluoromethyl)pyridin-2-yl)-5,6,6a,7,9,10-hexahydro-8H-pyrazino[1,2-a]pyrido[3,2-e]pyrazin-8-yl)ethan-1-one] |
| 1000 to 10000 |  | CC(=O)N1CCN2c3ncccc3N(c3ccc(C(F)(F)F)nc3)CC2C1 (stereo not drawn) [compound 54, 1-(5-(6-(trifluoromethyl)pyridin-3-yl)-5,6,6a,7,9,10-hexahydro-8H-pyrazino[1,2-a]pyrido[3,2-e]pyrazin-8-yl)ethan-1-one] |
| < 1000 |  | CC(=O)N1CC(N2CCN(c3ccc(C(F)(F)F)cc3)c3ccccc32)C1 [compound 56, 1-(3-(4-(4-(trifluoromethyl)phenyl)-3,4-dihydroquinoxalin-1(2H)-yl)azetidin-1-yl)ethan-1-one] |
| < 1000 |  | CC(=O)NCCN1CCN(c2ccc(C(F)(F)F)cc2)c2ccccc21 [compound 57, N-(2-(4-(4-(trifluoromethyl)phenyl)-3,4-dihydroquinoxalin-1(2H)-yl)ethyl)acetamide] |
| > 10000 |  | CC(=O)NCC1CN(c2ccc(C(F)(F)F)cc2)c2cccnc2S1(=O)=O (stereo not drawn) [compound 58, N-((4,4-dioxido-1-(4-(trifluoromethyl)phenyl)-2,3-dihydro-1H-pyrido[2,3-b][1,4]thiazin-3-yl)methyl)acetamide] |
| > 10000 |  | CC(=O)N1CC2CN(c3ccc(C(F)(F)F)cc3)c3cccnc3N2C1=O (stereo not drawn) [compound 59, 8-acetyl-5-(4-(trifluoromethyl)phenyl)-6,6a,7,8-tetrahydroimidazo[1,5-a]pyrido[3,2-e]pyrazin-9(5H)-one] |
